Key:
[1] = test system: platelet aggregation induced by ADP in human platelet-rich plasma (PRP); test: Human platelet aggregation inhibitory activity (ADP-induced, platelet-rich plasma); format: cell-based; conditions: 8 min, ADP final concentration 20 μM, maximum aggregation rate, measured for 8 minutes
Description: A blood collecting syringe containing 1/10 volume of a 3.8% sodium citrate solution was used to collect blood from radial vein of a healthy person. The collected blood was centrifuged at 180×g at room temperature for 10 minutes to separate the supernatant (platelet-rich plasma; PRP). After PRP was separately collected, the remaining blood was centrifuged at 1,600×g for 10 minutes to separately collect platelet-poor plasma (PPP) of the upper layer. PRP was left at rest at 16° C. for 30 minutes, and subsequently used for measurement.
200 μL of the separately collected PRP was dispensed into a cuvette for the aggregation test, and 1 μL of dimethylsulfoxide (control) or a test compound solution diluted with dimethylsulfoxide was added, followed by incubation at 37° C. for 2 minutes. Subsequently, 2 μL of 2 mM ADP was added (final concentration 20 μM) to induce platelet aggregation.
Platelet aggregation was measured for 8 minutes using an aggregometer (MCM HEMA TRACER 313M; MC MEDICAL, INC.). With the light transmittance rate of PPP being set as an aggregation value of 100%, the maximum aggregation rate was determined for each concentration of the test compounds to calculate IC50 values.

[2] = test system: platelet aggregation induced by ADP in rat platelet-rich plasma (PRP); test: Platelet aggregation inhibitory activity during oral administration in a rat (ex vivo, ADP-induced); conditions: male Wistar rats, 1 mg/10 ml/kg orally, blood collected 4 hours after administration, ADP final concentration 3 μM, vs. control PRP (solvent only), read-out: Inhibition Rates (%)
Description: 1 mg/10 ml/kg of the test compound was orally administered by gavage to male rats (Slc: Wistar, age 8 to 9 weeks) that had been fasted overnight. 4 hours after administration, a syringe containing 1/10 volume of a 3.13% sodium citrate solution was used to collect blood from the abdominal aorta of a rat under anesthesia. From the collected blood, platelet-rich plasma (PRP) and platelet-poor plasma (PPP) were prepared according to the method described in the method for measuring human platelet aggregation inhibitory activity. PRP was left at rest at 16° C. for 30 minutes, and subsequently used for measurement.
200 μL of the separately collected PRP was dispensed into a cuvette for the aggregation test, followed by incubation at 37° C. for 2 minutes, and subsequently 2 μL of 0.3 mM ADP was added (final concentration 3 μM) to induce platelet aggregation.
Platelet aggregation was measured for 8 minutes using an aggregometer (MCM HEMA TRACER 313M; MC MEDICAL, INC.). With the light transmittance rate of PPP being set as an aggregation value of 100%, the maximum aggregation rate of PRP was determined, and compared with the maximum aggregation rate of control PRP (rat administered only with a solvent) to calculate inhibition rates.

| SMILES | IC50 [1] [µM] | inhibition at 1 mg/kg [2] [%] |
| --- | --- | --- |
| CC[C@@H](COc1ccccc1-c1ccc(C(=O)N2CCC(N3C(=O)C(C)(C)Oc4ncc(Cl)cc43)CC2)c(F)c1)C(=O)O [Example 10, (2S)-2-{[(4′-{[4-(7-Chloro-3,3-dimethyl-2-oxo-2,3-dihydro-1H-pyrido[2,3-b][1,4]oxazin-1-yl)piperidin-1-yl]carbonyl}-3′-fluorobiphenyl-2-yl)oxy]methyl}butanoic acid] | 8.4 | 47 |
| C[C@H](CC(=O)O)Oc1ccccc1-c1ccc(C(=O)N2CCC(N3C(=O)[C@H](C)Oc4ncc(Cl)cc43)CC2)c(F)c1 [Example 28, (3R)-3-{[4′-({4-[(3S)-7-Chloro-3-methyl-2-oxo-2,3-dihydro-1H-pyrido[2,3-b][1,4]oxazin-1-yl]piperidin-1-yl}carbonyl)-3′-fluorobiphenyl-2-yl]oxy}butanoic acid] | 1.8 | 74 |
| C[C@H](CC(=O)O)Oc1ccccc1-c1ccc(C(=O)N2CCC(N3C(=O)C(C)(C)Oc4ncc(Cl)cc43)CC2)c(Cl)c1 [Example 19, (3R)-3-[(3′-Chloro-4′-{[4-(7-chloro-3,3-dimethyl-2-oxo-2,3-dihydro-1H-pyrido[2,3-b][1,4]oxazin-1-yl)piperidin-1-yl]carbonyl}biphenyl-2-yl)oxy]butanoic acid] | 7.5 | 64 |
| CC[C@H](CC(=O)O)Oc1ccccc1-c1cnc(C(=O)N2CCC(N3C(=O)C(C)(C)Oc4ncc(Cl)cc43)CC2)c(F)c1 [Example 41, (3R)-3-[2-(6-{[4-(7-Chloro-3,3-dimethyl-2-oxo-2,3-dihydro-1H-pyrido[2,3-b][1,4]oxazin-1-yl)piperidin-1-yl]carbonyl}-5-fluoropyridin-3-yl)phenoxy]pentanoic acid] | 5.7 | 56 |
| C[C@H](CC(=O)O)Oc1ccc(F)cc1-c1ccc(C(=O)N2CCC(N3C(=O)C(C)(C)Cc4ncc(Cl)cc43)CC2)c(F)c1 [Example 14, (3R)-3-[(4′-{[4-(7-Chloro-3,3-dimethyl-2-oxo-3,4-dihydro-1,5-naphthyridin-1(2H)-yl)piperidin-1-yl]carbonyl}-3′,5-difluorobiphenyl-2-yl)oxy]butanoic acid] | 3.4 | 79 |
| C[C@@H]1Oc2ncc(F)cc2N(C2CCN(C(=O)c3ccc(-c4ccccc4OCC(C)(C)C(=O)O)cc3F)CC2)C1=O [Example 1, 3-{[3′-Fluoro-4′-({4-[(3S)-7-fluoro-3-methyl-2-oxo-2,3-dihydro-1H-pyrido[2,3-b][1,4]oxazin-1-yl]piperidin-1-yl}carbonyl)biphenyl-2-yl]oxy}-2,2-dimethylpropanoic acid] | 15 | – |
| C[C@H](CC(=O)O)Oc1ccc(F)cc1-c1ccc(C(=O)N2CCC(N3C(=O)COc4ncc(Cl)cc43)CC2)c(F)c1 [Example 31, (3R)-3-[(4′-{[4-(7-Chloro-2-oxo-2,3-dihydro-1H-pyrido[2,3-b][1,4]oxazin-1-yl)piperidin-1-yl]carbonyl}-3′,5-difluorobiphenyl-2-yl)oxy]butanoic acid] | 18 | – |
| Cc1cnc2c(c1)N(C1CCN(C(=O)c3ccc(-c4ccccc4O[C@H](C)CC(=O)O)cc3F)CC1)C(=O)C(C)(C)O2 [Example 30, (3R)-3-[(4′-{[4-(3,3,7-Trimethyl-2-oxo-2,3-dihydro-1H-pyrido[2,3-b][1,4]oxazin-1-yl)piperidin-1-yl]carbonyl}-3′-fluorobiphenyl-2-yl)oxy]butanoic acid] | 2 | – |
| C[C@H](CC(=O)O)Oc1ccc(F)cc1-c1ccc(C(=O)N2CCC(N3C(=O)CCc4ncc(Cl)cc43)CC2)c(F)c1 [Example 32, (3R)-3-[(4′-{[4-(7-Chloro-2-oxo-3,4-dihydro-1,5-naphthyridin-1(2H)-yl)piperidin-1-yl]carbonyl}-3′,5-difluorobiphenyl-2-yl)oxy]butanoic acid] | 17 | – |
| C[C@@H](COc1ccc(F)cc1-c1cnc(C(=O)N2CCC(N3C(=O)C(C)(C)Oc4ncc(Cl)cc43)CC2)c(F)c1)C(=O)O [Example 49, (2S)-3-[2-(6-{[4-(7-Chloro-3,3-dimethyl-2-oxo-2,3-dihydro-1H-pyrido[2,3-b][1,4]oxazin-1-yl)piperidin-1-yl]carbonyl}-5-fluoropyridin-3-yl)-4-fluorophenoxy]-2-methylpropanoic acid] | 1.7 | – |
| CC1(C)Oc2ncc(Cl)cc2N(C2CCN(C(=O)c3ccc(-c4ccccc4OCC4(C(=O)O)CC4)cc3F)CC2)C1=O [Example 23, 1-{[(4′-{[4-(7-Chloro-3,3-dimethyl-2-oxo-2,3-dihydro-1H-pyrido[2,3-b][1,4]oxazin-1-yl)piperidin-1-yl]carbonyl}-3′-fluorobiphenyl-2-yl)oxy]methyl}cyclopropanecarboxylic acid] | 5.2 | – |
| C[C@H](CC(=O)O)Oc1ccccc1-c1cnc(C(=O)N2CCC(N3C(=O)[C@H](C)Oc4ncc(Cl)cc43)CC2)c(F)c1 [Example 40, (3R)-3-{2-[6-({4-[(3S)-7-Chloro-3-methyl-2-oxo-2,3-dihydro-1H-pyrido[2,3-b][1,4]oxazin-1-yl]piperidin-1-yl}carbonyl)-5-fluoropyridin-3-yl]phenoxy}butanoic acid] | 1.1 | – |
| CC(C)(COc1ccccc1-c1ccc(C(=O)N2CCC(N3C(=O)C(C)(C)Oc4ncc(Cl)cc43)CC2)c([N+](=O)[O-])c1)C(=O)O [Example 22, 3-[(4′-{[4-(7-Chloro-3,3-dimethyl-2-oxo-2,3-dihydro-1H-pyrido[2,3-b][1,4]oxazin-1-yl)piperidin-1-yl]carbonyl}-3′-nitrobiphenyl-2-yl)oxy]-2,2-dimethylpropanoic acid] | 5.7 | – |
| CC(C)(COc1ccccc1-c1ccc(C(=O)N2CCC(N3C(=O)C(C)(C)Oc4ncc(Cl)cc43)CC2)c(O)c1)C(=O)O [Example 21, 3-[(4′-{[4-(7-Chloro-3,3-dimethyl-2-oxo-2,3-dihydro-1H-pyrido[2,3-b][1,4]oxazin-1-yl)piperidin-1-yl]carbonyl}-3′-hydroxybiphenyl-2-yl)oxy]-2,2-dimethylpropanoic acid] | 8.7 | – |
| C[C@@H]1Oc2ncc(Cl)cc2N(C2CCN(C(=O)c3ccc(-c4ccccc4OCC(C)(C)C(=O)O)cc3)CC2)C1=O [Example 20, 3-{[4′-({4-[(3S)-7-Chloro-3-methyl-2-oxo-2,3-dihydro-1H-pyrido[2,3-b][1,4]oxazin-1-yl]piperidin-1-yl}carbonyl)biphenyl-2-yl]oxy}-2,2-dimethylpropanoic acid] | 2.8 | – |
| CC1(C)Cc2ncc(Cl)cc2N(C2CCN(C(=O)c3ccc(-c4cc(F)ccc4OCCC(=O)O)cc3F)CC2)C1=O [Example 37, 3-[(4′-{[4-(7-Chloro-3,3-dimethyl-2-oxo-3,4-dihydro-1,5-naphthyridin-1(2H)-yl)piperidin-1-yl]carbonyl}-3′,5-difluorobiphenyl-2-yl)oxy]propanoic acid] | 6.6 | – |
| C[C@H](CC(=O)O)Oc1ccccc1-c1ccc(C(=O)N2CCC(N3C(=O)COc4ncc(Cl)cc43)CC2)c(F)c1 [Example 7, (3R)-3-[(4′-{[4-(7-Chloro-2-oxo-2,3-dihydro-1H-pyrido[2,3-b][1,4]oxazin-1-yl)piperidin-1-yl]carbonyl}-3′-fluorobiphenyl-2-yl)oxy]butanoic acid] | 7.9 | – |
| CC(C)(COc1ccccc1-c1ccc(C(=O)N2CCC(N3C(=O)C4(CC4)Oc4ncc(Cl)cc43)CC2)c(Cl)c1)C(=O)O [Example 18, 3-[(3′-Chloro-4′-{[4-(7′-chloro-2′-oxospiro[cyclopropane-1,3′-pyrido[2,3-b][1,4]oxazin]-1′(2′H)-yl)piperidin-1-yl]carbonyl}biphenyl-2-yl)oxy]-2,2-dimethylpropanoic acid] | 10 | – |
| C[C@H](CC(=O)O)Oc1ccccc1-c1cnc(C(=O)N2CCC(N3C(=O)C(C)(C)Oc4ncc(Cl)cc43)CC2)c(F)c1 [Example 39, (3R)-3-[2-(6-{[4-(7-Chloro-3,3-dimethyl-2-oxo-2,3-dihydro-1H-pyrido[2,3-b][1,4]oxazin-1-yl)piperidin-1-yl]carbonyl}-5-fluoropyridin-3-yl)phenoxy]butanoic acid] | 1 | – |
| C[C@@H](COc1ccccc1-c1ccc(C(=O)N2CCC(N3C(=O)CCc4ncc(Cl)cc43)CC2)c(F)c1)C(=O)O [Example 12, (2S)-3-[(4′-{[4-(7-Chloro-2-oxo-3,4-dihydro-1,5-naphthyridin-1(2H)-yl)piperidin-1-yl]carbonyl}-3′-fluorobiphenyl-2-yl)oxy]-2-methylpropanoic acid] | 16 | – |
